These results are taken from patent publication US10124004B2, “Pyrido[3,4-d]pyrimidine derivative and pharmaceutically acceptable salt thereof” (Teijin Pharma Limited, priority 2015, dated 2018).

Some results are limits rather than exact numbers.

For this assay, the target named is T1, CDK4/cyclin D3 (Homo sapiens, UniProt P11802).
T1 construct: purchased Carna Biosciences, Inc. QS S Assist CDK4/Cyclin D3_FP Kit
T1 sequence (P11802 whole entry): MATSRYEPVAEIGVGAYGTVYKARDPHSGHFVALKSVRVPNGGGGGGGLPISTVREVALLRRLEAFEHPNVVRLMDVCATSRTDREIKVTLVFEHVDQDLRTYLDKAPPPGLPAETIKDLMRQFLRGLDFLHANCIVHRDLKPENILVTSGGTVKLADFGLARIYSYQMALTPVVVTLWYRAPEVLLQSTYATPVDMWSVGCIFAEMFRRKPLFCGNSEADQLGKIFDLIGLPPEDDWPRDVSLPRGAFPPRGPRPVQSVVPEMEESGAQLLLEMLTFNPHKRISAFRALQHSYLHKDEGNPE
T1 sequence (P30281 whole entry partner): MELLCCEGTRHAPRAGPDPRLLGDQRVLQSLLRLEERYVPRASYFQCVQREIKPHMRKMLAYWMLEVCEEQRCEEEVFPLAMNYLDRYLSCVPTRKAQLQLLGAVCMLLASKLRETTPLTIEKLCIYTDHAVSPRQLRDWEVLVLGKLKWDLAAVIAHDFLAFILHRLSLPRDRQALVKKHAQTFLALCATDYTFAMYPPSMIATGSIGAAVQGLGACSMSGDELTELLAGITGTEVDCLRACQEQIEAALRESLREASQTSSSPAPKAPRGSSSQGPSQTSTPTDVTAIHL
The assay is described as follows: Human CDK4/cyclin D3 inhibitory activity (QS S Assist CDK4/Cyclin D3_FP Kit, IMAP fluorescence polarization). The note with it: Human CDK4/cyclin D3 inhibitory activity; read-out: CDK4 Activity symbol. In kind it is biochemical. The method, then: Human CDK4/Cyclin D3 Inhibitory Activity
Each compound was analyzed for CDK4/cyclin D3 inhibitory activity with an assay kit (QS S Assist CDK4/Cyclin D3_FP Kit, available from Carna Biosciences, Inc.). This assay kit determines kinase activity on the basis of the IMAP technology by Molecular Devices. Specifically, the kinase activity is determined through quantification of a variation in fluorescent polarization caused by binding of a kinase-phosphorylated fluorescent substance to an IMAP-binding reagent.
Each solution was prepared with the 10× assay buffer attached to the kit or a separately prepared assay buffer having the same composition as the assay buffer attached to the kit. An assay buffer was prepared by 10-fold dilution of the 10× assay buffer with distilled water. The assay buffer contains 20 mM HEPES (pH 7.4), 0.01% Tween20, and 2 mM dithiothreitol. A test compound solution was prepared by dilution of the test compound with dimethyl sulfoxide (DMSO) to a concentration 100 times higher than the final concentration and then 25-fold dilution with the assay buffer to a concentration four times higher than the final concentration. An ATP/substrate/Metal solution was prepared by five-fold dilution of the 5×ATP/substrate/Metal solution attached to the kit with the assay buffer. An enzyme solution was prepared by dilution of the CDK4/cyclin D3 attached to the kit with the assay buffer to a concentration twice higher than the final concentration (final concentration of CDK4/cyclin D3:12.5 to 25 ng/well). A detection reagent was prepared by five-fold dilution of each of 5× IMAP-binding buffer A and 5×IMAP-binding buffer B with distilled water, mixing of IMAP-binding buffer A with IMAP-binding buffer B at a ratio of 85:15, and 400-fold dilution of the IMAP-binding reagent with the mixed buffer.
The test compound solution (5 μL/well) and the ATP/substrate/Metal solution (5 μL/well) were added to a 384-well plate, and the enzyme solution or the assay buffer (10 μL/well) was added to the plate (total amount of the reaction mixture: 20 μL/well) for initiation of enzymatic reaction. […] The reaction was performed at room temperature for 45 minutes, and the detection reagent (60 μL/well) was then added to the plate, followed by further reaction for 30 minutes at room temperature under light shielding conditions. Subsequently, fluorescent polarization was determined with a microplate reader at an excitation wavelength of 485 nm and an emission wavelength of 535 nm.
The percent inhibition of enzyme activity was calculated for each test compound (note: enzyme activity=100% in the case of addition of the enzyme solution and addition of DMSO instead of the test compound solution, whereas enzyme activity=0% in the case of addition of the assay buffer instead of the enzyme solution, and addition of DMSO instead of the test compound solution). The percent inhibition of enzyme activity was fitted to a dose-response curve, to determine a 50% inhibitory concentration against CDK4/cyclin D3.
In each table, “+++” corresponds to IC50<10 nM, “++” 10 nM≤IC50<100 nM, and “+” 100 nM≤IC50.
(In general: In fluorescence polarisation assays a small probe gives low polarisation when free and higher when bound to something large.)
As to `CNC1(COc2ccc(Nc3ncc4cc(C(C)OC)nc(NC(C)C)c4n3)nc2)CC1` (stereo not shown) [Compound 461], the IC50 fell in the range of 10 to 100 nM.

On to `CO[C@H](C)c1cc2cnc(Nc3ccc(N4CCN[C@H](C)C4=O)cn3)nc2c(NC(C)C)n1` [Compound 462], for which the IC50 is 10 to 100 nM.

As to `COC(C)c1cc2cnc(Nc3ccc(CN4CCNCC4)cn3)nc2c(N[C@H]2CC[C@H](OC(C)C)CC2)n1` (stereo partly shown) [Compound 464], the IC50 was < 10 nM.

`COC(C)c1cc2cnc(Nc3ccc(CN4CCNCC4)cn3)nc2c(NCC2CC(F)(F)C2)n1` (stereo not shown) [Compound 465]: the IC50 was < 10 nM.

Consider `COC(C)c1cc2cnc(Nc3ccc(CN4CCNCC4)cn3)nc2c(NC2CCCOCC2)n1` (stereo not shown) [Compound 468], for which the IC50 is < 10 nM.

On to `CO[C@H](C)c1cc2cnc(Nc3ccc(N4CCC(F)CC4)cn3)nc2c(NC(C)C)n1` [Compound 469], for which the IC50 lay in the range of 10 to 100 nM.

As to `CO[C@H](C)c1cc2cnc(Nc3ccc(N4CCC(F)(F)CC4)cn3)nc2c(NC(C)C)n1` [Compound 470], the IC50 is ≥ 100 nM.

Regarding `CO[C@H](C)c1cc2cnc(Nc3ccc(OCCN(C)C)nn3)nc2c(NC(C)C)n1` [Compound 471], the IC50 fell in the range of 10 to 100 nM.

Consider `CO[C@H](C)c1cc2cnc(Nc3ccc(CN4CCC(F)CC4)cn3)nc2c(NC(C)C)n1` [Compound 472], for which the IC50 lay in the range of 10 to 100 nM.

For the compound `CO[C@H](C)c1cc2cnc(Nc3ccc(OC4CCNCC4(F)F)cn3)nc2c(NC(C)C)n1` (stereo partly shown) [Compound 473], the IC50 lay in the range of 10 to 100 nM.

Consider `COC(C)c1cc2cnc(Nc3ccc(CN4CCNCC4)cn3)nc2c(NC23CCC(C(=O)O)(CC2)CC3)n1` (stereo not shown) [Compound 475], for which the IC50 was in the range of 10 to 100 nM.

In the case of `CO[C@H](C)c1cc2cnc(Nc3ccc(N4CC5(CNC5)C4)cn3)nc2c(NC(C)C)n1` [Compound 476], the IC50 was < 10 nM.

For the compound `CO[C@H](C)c1cc2cnc(Nc3ccc(N4CC5(CCCNC5)C4)cn3)nc2c(NC(C)C)n1` [Compound 477], the IC50 was < 10 nM.

With `CO[C@H](C)c1cc2cnc(Nc3ccc(N4CC5(CCN5)C4)cn3)nc2c(NC(C)C)n1` [Compound 478], the IC50 was < 10 nM.

For `CO[C@H](C)c1cc2cnc(Nc3ccc(N4CC5(CCNC5)C4)cn3)nc2c(NC(C)C)n1` [Compound 479], the IC50 is < 10 nM.

`CO[C@H](C)c1cc2cnc(Nc3ccc(N4CC5(CCC5)C4)cn3)nc2c(NC(C)C)n1` [Compound 480]: the IC50 was 10 to 100 nM.

As for `CO[C@H](C)c1cc2cnc(Nc3ccc(N4CCC5(CC4)COC5)cn3)nc2c(NC(C)C)n1` [Compound 481], the IC50 is 10 to 100 nM.

With `CO[C@H](C)c1cc2cnc(Nc3ccc(N4CC5(CCNCC5)C4)cn3)nc2c(NC(C)C)n1` [Compound 482], the IC50 is < 10 nM.

Regarding `CO[C@H](C)c1cc2cnc(Nc3ccc(OC4CC5(CNC5)C4)cn3)nc2c(NC(C)C)n1` [Compound 483], the IC50 was < 10 nM.

With `CO[C@H](C)c1cc2cnc(Nc3ccc(N4CC5(CC(N)C5)C4)cn3)nc2c(NC(C)C)n1` [Compound 484], the IC50 was < 10 nM.

For the compound `CO[C@H](C)c1cc2cnc(Nc3ccc(NC4CC5(CNC5)C4)cn3)nc2c(NC(C)C)n1` [Compound 485], the IC50 is < 10 nM.

Turning to `CO[C@H](C)c1cc2cnc(Nc3ccc(N4CC5(CCCN5)C4)cn3)nc2c(NC(C)C)n1` [Compound 486], the IC50 is < 10 nM.

With `CO[C@H](C)c1cc2cnc(Nc3ccc(OCC(F)CN(C)C)cn3)nc2c(NC(C)C)n1` (stereo partly shown) [Compound 487], the IC50 is < 10 nM.

In the case of `CO[C@H](C)c1cc2cnc(Nc3ccc(N4CCCN(C)CC4)nn3)nc2c(NC(C)C)n1` [Compound 488], the IC50 was < 10 nM.

Take `CO[C@H](C)c1cc2cnc(Nc3ccc(N4CCC(N(C)C)CC4)nn3)nc2c(NC(C)C)n1` [Compound 489]: the IC50 was < 10 nM.

On to `CC(C)Nc1nc([C@@H](C)O)cc2cnc(Nc3ccc(N4CCCN(C)CC4)nn3)nc12` [Compound 490], for which the IC50 was < 10 nM.

As to `CO[C@H](C)c1cc2cnc(Nc3ccc(CN4CCCNCC4)cn3)nc2c(NC(C)C)n1` [Compound 493], the IC50 was < 10 nM.

Take `CO[C@H](C)c1cc2cnc(Nc3ccc(CN4CCC(O)CC4)cn3)nc2c(NC(C)C)n1` [Compound 494]: the IC50 is < 10 nM.

`CO[C@H](C)c1cc2cnc(Nc3ccc(N4CCCNCC4)nn3)nc2c(NC(C)C)n1` [Compound 495]: the IC50 is < 10 nM.

`CC(C)Nc1nc([C@@H](C)O)cc2cnc(Nc3ccc(N4CCCNCC4)nn3)nc12` [Compound 496]: the IC50 is < 10 nM.

Turning to `CO[C@H](C)c1cc2cnc(Nc3ccc(N4CCNC4=O)cn3)nc2c(NC(C)C)n1` [Compound 498], the IC50 was < 10 nM.

As for `CO[C@H](C)c1cc2cnc(Nc3ccc(N4C5CCC4CNC5)cn3)nc2c(NC(C)C)n1` [Compound 500], the IC50 is < 10 nM.

Turning to `CO[C@H](C)c1cc2cnc(Nc3ccc(N4C5CCC4CC(N)C5)cn3)nc2c(NC(C)C)n1` (stereo partly shown) [Compound 502], the IC50 was < 10 nM.

As for `CNC1C2CCC1CN(c1ccc(Nc3ncc4cc([C@@H](C)OC)nc(NC(C)C)c4n3)nc1)C2` (stereo partly shown) [Compound 503], the IC50 is < 10 nM.

As for `CO[C@H](C)c1cc2cnc(Nc3ccc(OC4CC5CCC(C4)N5)cn3)nc2c(NC(C)C)n1` (stereo partly shown) [Compound 504], the IC50 was < 10 nM.

Regarding `CO[C@H](C)c1cc2cnc(Nc3ccc(OCC4(N)CCC4)cn3)nc2c(NC(C)C)n1` [Compound 505], the IC50 was in the range of 10 to 100 nM.

Take `CC(C)Nc1nc([C@@H](C)O)cc2cnc(Nc3ccc(N4CCN[C@H](C)C4=O)cn3)nc12` [Compound 506]: the IC50 lay within 10 to 100 nM.

As to `COC(C)c1cc2cnc(Nc3ccc(CN4CCNCC4)cn3)nc2c(NC2CC3(C2)CC(C(=O)O)C3)n1` (stereo not shown) [Compound 513], the IC50 is 10 to 100 nM.

Consider `CO[C@H](C)c1cc2cnc(Nc3ccc(N4CCNC(=O)C(C)(C)C4)cn3)nc2c(NC(C)C)n1` [Compound 514], for which the IC50 lay within 10 to 100 nM.

With `COC(C)c1cc2cnc(Nc3ccc(CN4CCNC5(CC5)C4)cn3)nc2c(NC(C)C)n1` (stereo not shown) [Compound 515], the IC50 fell in the range of 10 to 100 nM.

Take `CC(C)Nc1nc(C(C)O)cc2cnc(Nc3ccc(CN4CCNC5(CC5)C4)cn3)nc12` (stereo not shown) [Compound 516]: the IC50 is 10 to 100 nM.

For the compound `CC(C)Nc1nc([C@@H](C)O)cc2cnc(Nc3ccc(N4CCCC(O)C4)nn3)nc12` (stereo partly shown) [Compound 517], the IC50 was < 10 nM.

For the compound `CO[C@H](C)c1cc2cnc(Nc3ccc(CC(=O)N4CCNCC4)cn3)nc2c(NC(C)C)n1` [Compound 518], the IC50 was < 10 nM.

Turning to `CC(C)Nc1nc([C@@H](C)O)cc2cnc(Nc3ccc(N4CCC(N5CCOCC5)CC4)nn3)nc12` [Compound 520], the IC50 is < 10 nM.

For the compound `CO[C@H](C)c1cc2cnc(Nc3ccc(N4CC5(CC(O)C5)C4)nn3)nc2c(NC(C)C)n1` [Compound 523], the IC50 is < 10 nM.

Regarding `CO[C@H](C)c1cc2cnc(Nc3ccc(N4C[C@@H]5C[C@H]4CN5)cn3)nc2c(NC(C)C)n1` [Compound 525], the IC50 is < 10 nM.

Consider `CNCCCOc1ccc(Nc2ncc3cc([C@@H](C)OC)nc(NC(C)C)c3n2)nn1` [Compound 527], for which the IC50 lay in the range of 10 to 100 nM.

Regarding `CNCCCOc1ccc(Nc2ncc3cc([C@@H](C)O)nc(NC(C)C)c3n2)nc1` [Compound 528], the IC50 is < 10 nM.

`CNCCCOc1ccc(Nc2ncc3cc([C@@H](C)O)nc(NC(C)C)c3n2)nn1` [Compound 530]: the IC50 was < 10 nM.

Consider `CO[C@H](C)c1cc2cnc(Nc3ccc(N4CCN(C)CC4)nn3)nc2c(NC(C)C)n1` [Compound 531], for which the IC50 was < 10 nM.

Regarding `CO[C@H](C)c1cc2cnc(Nc3ccc(N4CC(=O)NCC4=O)cn3)nc2c(NC(C)C)n1` [Compound 533], the IC50 is < 10 nM.

`CO[C@H](C)c1cc2cnc(Nc3ccc(CN4CCNC(C)(C)C4)cn3)nc2c(NC(C)C)n1` [Compound 534]: the IC50 was < 10 nM.

Take `CO[C@H](C)c1cc2cnc(Nc3ccc(CN4CCNC5(CC5)C4)cn3)nc2c(NC(C)C)n1` [Compound 535]: the IC50 was < 10 nM.

On to `CC(C)Nc1nc([C@@H](C)O)cc2cnc(Nc3ccc(CN4CCNC(C)(C)C4)cn3)nc12` [Compound 536], for which the IC50 was < 10 nM.

For `CC(C)Nc1nc([C@@H](C)O)cc2cnc(Nc3ccc(N(C)C(=O)CN)cn3)nc12` [Compound 538], the IC50 was < 10 nM.
